This is an account of results in patent US8133913B2, “Substituted indeno [1,2-b]indole derivatives as novel inhibitors of protein kinase CK2 and their use as tumor therapeutic agents, cytostatics and diagnostic aids” (Heinrich-Heine Universitat Dusseldof, priority 2006, dated 2012).

SMILES strings stand for the structures.

For orientation: inhibition means the share of the control response that was lost under treatment.

Assay [1] concerns the target T1, human CK2 protein kinase (holoenzyme) (Homo sapiens, UniProt P68400).
T1 construct: made in house; host or cells: E. coli BL21(DE3), pT7-7 or bicistronic pET11d-CK2α, β
Description: Inhibition of recombinant human CK2 protein kinase (holoenzyme), radiometric filter assay with peptide […]. The format is biochemical.

The test system of the next assay is MCF-7. Description: Proliferation of tumor cell lines (Bracht et al.). Format: cell-based. The settings on record: Homo sapiens, MCF7, read-out: IC50 (μM) Mean, inhibition of cell proliferation.
The next assay concerns DAN-G. Description: Proliferation of tumor cell lines (Bracht et al.). As to conditions: read-out: IC50 (μM) Mean, inhibition of cell proliferation. The format is cell-based.
The next assay has as its system LCLC. Description: Proliferation of tumor cell lines (Bracht et al.). The format is cell-based. As to conditions: read-out: IC50 (μM) Mean, inhibition of cell proliferation.
The test system of the next assay is A427. Description: Proliferation of tumor cell lines (Bracht et al.). The format is cell-based. The settings on record: Homo sapiens, A-427, read-out: IC50 (μM) Mean, inhibition of cell proliferation.
Assay [2] addresses T2, CK2-alpha1 (catalytic subunit of CK2) (Homo sapiens, UniProt P68400).
T2 construct: made in house; host or cells: Sf9 insect cells, baculovirus
Description: Radiometric protein kinase assay (33PanQinase Activity Assay). Format: biochemical. The settings on record: 1 μM ATP, substrate casein.

T1 sequence (P68400 whole entry): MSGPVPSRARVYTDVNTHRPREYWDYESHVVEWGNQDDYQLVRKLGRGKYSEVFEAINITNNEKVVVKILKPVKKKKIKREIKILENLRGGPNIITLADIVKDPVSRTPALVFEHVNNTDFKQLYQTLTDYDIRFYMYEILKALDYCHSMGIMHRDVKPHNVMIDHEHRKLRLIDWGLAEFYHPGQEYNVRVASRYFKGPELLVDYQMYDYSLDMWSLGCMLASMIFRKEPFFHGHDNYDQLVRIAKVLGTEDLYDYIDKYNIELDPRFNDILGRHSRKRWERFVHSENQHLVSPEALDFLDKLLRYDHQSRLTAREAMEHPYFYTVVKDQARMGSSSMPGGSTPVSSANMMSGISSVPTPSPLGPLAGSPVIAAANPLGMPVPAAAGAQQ
T1 sequence (P67870 whole entry partner): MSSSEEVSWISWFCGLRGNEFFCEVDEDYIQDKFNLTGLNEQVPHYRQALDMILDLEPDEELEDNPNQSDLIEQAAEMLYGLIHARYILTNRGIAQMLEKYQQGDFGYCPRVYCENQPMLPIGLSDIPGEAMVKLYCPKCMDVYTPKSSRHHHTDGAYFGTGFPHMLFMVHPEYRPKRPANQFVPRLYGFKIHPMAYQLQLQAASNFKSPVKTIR
T2 sequence (P68400 whole entry): as the sequence (P68400 whole entry) above

As to `O=c1ccc(=O)c2c1c1c(=O)c3ccccc3c1n2Cc1ccccc1` [Compound 6c, 5-Benzyl 5,6,9,10-tetrahydroindeno[1,2-b]indole-6,9,10-trione], in assay [1] (10 μM compound, DMSO control = 100% CK2 activity, at least three independent experiments), the inhibition at 10 µM worked out at 60%. Moreover, the IC50 is 1.49 µM in assay [1] (concentration range 30 μM to 0.01 μM, 100 μM ATP in assay buffer); 3.27 µM in the assay with MCF-7; over 20 µM in the assay on DAN-G; 4.14 µM in the assay with LCLC; 3.74 µM in the assay on A427; over 10 µM in assay [2].
